From ChEMBL document CHEMBL1201862, “PubChem BioAssay data set” (2004)
Activity calls are given as the source filed them.

Legend:
[1] = cells; format: functional, cell-based
[2] = target: T1, Nuclear receptor subfamily 0 group B member 1 (Homo sapiens, UniProt P51843); format: functional, cell-based;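 further: HEK293T cells transfected with SF-1 and DAX-1 plus StAR promoter luciferase reporter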
T1 sequence (P51843 whole entry): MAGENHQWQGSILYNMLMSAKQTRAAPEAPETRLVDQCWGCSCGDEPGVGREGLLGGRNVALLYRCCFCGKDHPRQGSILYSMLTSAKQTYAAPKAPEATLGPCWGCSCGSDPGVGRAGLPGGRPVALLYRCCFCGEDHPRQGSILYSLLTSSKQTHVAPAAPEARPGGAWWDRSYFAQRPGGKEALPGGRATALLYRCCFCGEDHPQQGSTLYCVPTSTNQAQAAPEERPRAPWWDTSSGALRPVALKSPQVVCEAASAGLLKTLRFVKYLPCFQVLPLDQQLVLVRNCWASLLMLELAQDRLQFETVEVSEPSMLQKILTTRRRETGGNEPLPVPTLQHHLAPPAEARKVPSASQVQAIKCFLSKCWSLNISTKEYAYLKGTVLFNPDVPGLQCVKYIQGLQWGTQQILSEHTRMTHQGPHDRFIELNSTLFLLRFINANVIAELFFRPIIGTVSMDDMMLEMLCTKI

[3] = blockers of bursicon-stimulated LGR2 cAMP reporter – cell-based, HEK293, CRE-luciferase reporter, cherry pick, set 2, dose response (AID 743343); format: functional;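 further: transfected cells were stimulated with diluted bursicon conditioned medium after compound addition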
[4] = Luminescence Cell-Based Dose Response HTS to Identify Inhibitors of 5'UTR Stem-Loop Driven Prion Protein mRNA Translation in H4 Neuroglioblastoma Cells. [Related pubchem assays: 1827 (Project Summary), 1813 (Primary HTS)]; format: functional
[5] = blockade of melanocortin 4 receptor signaling – cell-based, plate reader, cherry pick, counter-screen for LGR2 antagonist project, dose response (AID 743444); format: functional;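 further: transfected HEK 293 cells stimulated with alpha-MSH peptide; potency of inhibitors of the alpha-MSH evoked signal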
[6] = target: Cytochrome P450 3A4 (Homo sapiens, UniProt P08684);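 further: CYP3A4 tested as one member of a cytochrome P450 panel screen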
[7] = test system: INS1; assay: INS-1E survival protection against cytokine death – cell-based, luminescence, retest, dose response (AID 449756); format: functional; conditions: Rattus norvegicus;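 further: cell death triggered by IL-1 beta plus TNF-alpha plus IFN-gamma mixture; protective hits raise ATP signal compared with cytokine alone wells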
[8] = target: Cytochrome P450 2D6 (Homo sapiens, UniProt P10635);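 further: CYP2D6 member of a cytochrome P450 panel assay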
[9] = cells; format: functional, cell-based; conditions: HEK-CNG
[10] = target: Galanin receptor type 3 (Homo sapiens, UniProt O60755); assay: Fluorescence-based cell-based primary high throughput dose response assay to identify antagonists of the Galanin Receptor 3 (GalR3).; format: functional
[11] = HEK-293T viability loss after treatment – luminescence, T-cell screen hits, cytotoxicity control for TCR NF-kB inhibitor project, dose response (AID 489026); format: functional, cell-based;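 further: cells exposed to compound about 14 hours before the viability readout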
[12] = THP-1 cell cytotoxicity, dose response, cytotoxicity control for non-replicating M. tuberculosis project (AID 489025); format: functional
[13] = cells; format: functional
[14] = viability loss in HepG2 hepatoma cells – cell-based, ATP luminescence, cherry-pick, activator set 2, cytotoxicity control, dose response (AID 1053143); format: functional
[15] = Vero E6 cell cytotoxicity, dose response, cytotoxicity control for non-replicating M. tuberculosis project, secondary assay (AID 492998); format: functional, VeroE6; conditions: Vero C1008
[16] = HepG2 cell cytotoxicity, dose response, cytotoxicity control for non-replicating M. tuberculosis project (AID 489018); format: functional; conditions: Mycobacterium tuberculosis
[17] = Trypanosoma cruzi growth suppression in host cells – NIH3T3 host cells, beta-gal luminescence, confirmation (AID 2044); format: functional, cell-based;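 further: intracellular parasites grown in NIH/3T3 mouse fibroblasts as host cells; luminescent beta-galactosidase reporter signal from transgenic T. cruzi replicating inside host cells; inhibitors lower the luminescence signal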
[18] = Counterscreen for activators of the function of SWI/SNF related, matrix associated, actin dependent regulator of chromatin, subfamily a, member 2 (SMARCA2, BRM): Luminescence-based cell-based high throughput dose response assay to identify non-selective compounds using the VP16 reporter assay.; format: functional
[19] = target: SWI/SNF-related matrix-associated actin-dependent regulator of chromatin subfamily A member 2 (Homo sapiens, UniProt P51531); assay: Luminescence-based cell-based high throughput dose response assay to identify activators of the function of SWI/SNF related, matrix associated, actin dependent regulator of chromatin, subfamily a, member 2 (SMARCA2, BRM).; format: functional
[20] = NIH3T3 cell viability loss – ATP luminescence, mouse fibroblasts, counter-screen, dose response (AID 2010); format: functional, cell-based;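 further: cells exposed to compound for about 90 hours before reading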
[21] = cells
[22] = target: Major prion protein (Homo sapiens, UniProt P04156); format: functional, cell-based
[23] = viability loss in HEK293 cells – cell-based, plate reader, cherry-picked samples, cytotoxicity control, dose response (AID 743446); format: functional
[24] = toxicity toward HepG2 liver cells – cell-based, plate reader, cherry-pick, antagonist series, cytotoxicity control, dose response (AID 743416); format: functional
[25] = reduction of Shn3 3'UTR-driven luciferase in osteoblasts – cell-based, Clone20 osteoblasts, firefly luciferase, cherry-picked, dose response (AID 624132); format: functional;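 further: firefly luciferase luminescence from reporter carrying the Shn3 3'UTR in osteoblasts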
[26] = non-specific 3'UTR reporter inhibition in Clone20-Shn3RL – cell-based, Renilla luciferase, cherry-picked, counter-screen for Shn3 inhibitor project, dose response (AID 624133); format: functional
[27] = loss of viability in HepG2 cells – cell-based, CellTiter-Glo, cherry-picked, cytotoxicity control for Shn3 inhibitor project, dose response (AID 624134); format: functional
[28] = target: T2, Oxysterols receptor LXR-beta (Homo sapiens, UniProt P55055); format: functional, cell-based;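 further: agonist activity at LXR measured by a cell-based luminescence readout across a dose range, run as a counterscreen for daf-12 agonists; HEK293 cells with Gal4-LXR fusion and GAL4-driven luciferase reporter; potency for activation of Gal4-LXR reporter so compounds are agonists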
T2 sequence (P55055 whole entry): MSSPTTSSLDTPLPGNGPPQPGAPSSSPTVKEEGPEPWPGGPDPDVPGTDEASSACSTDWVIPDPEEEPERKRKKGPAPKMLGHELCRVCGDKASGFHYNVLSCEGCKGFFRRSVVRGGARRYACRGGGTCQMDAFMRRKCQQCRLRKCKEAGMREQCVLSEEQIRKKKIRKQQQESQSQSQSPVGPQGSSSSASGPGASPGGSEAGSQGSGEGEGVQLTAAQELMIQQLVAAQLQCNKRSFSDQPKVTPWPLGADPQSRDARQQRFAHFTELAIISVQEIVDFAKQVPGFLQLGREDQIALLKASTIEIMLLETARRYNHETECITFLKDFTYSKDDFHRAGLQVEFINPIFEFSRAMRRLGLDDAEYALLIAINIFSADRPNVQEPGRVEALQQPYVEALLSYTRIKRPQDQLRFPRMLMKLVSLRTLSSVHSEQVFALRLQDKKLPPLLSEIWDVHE

[29] = target: T3, Protein skinhead-1 (Caenorhabditis elegans, UniProt P34707); format: functional
T3 sequence (P34707 whole entry): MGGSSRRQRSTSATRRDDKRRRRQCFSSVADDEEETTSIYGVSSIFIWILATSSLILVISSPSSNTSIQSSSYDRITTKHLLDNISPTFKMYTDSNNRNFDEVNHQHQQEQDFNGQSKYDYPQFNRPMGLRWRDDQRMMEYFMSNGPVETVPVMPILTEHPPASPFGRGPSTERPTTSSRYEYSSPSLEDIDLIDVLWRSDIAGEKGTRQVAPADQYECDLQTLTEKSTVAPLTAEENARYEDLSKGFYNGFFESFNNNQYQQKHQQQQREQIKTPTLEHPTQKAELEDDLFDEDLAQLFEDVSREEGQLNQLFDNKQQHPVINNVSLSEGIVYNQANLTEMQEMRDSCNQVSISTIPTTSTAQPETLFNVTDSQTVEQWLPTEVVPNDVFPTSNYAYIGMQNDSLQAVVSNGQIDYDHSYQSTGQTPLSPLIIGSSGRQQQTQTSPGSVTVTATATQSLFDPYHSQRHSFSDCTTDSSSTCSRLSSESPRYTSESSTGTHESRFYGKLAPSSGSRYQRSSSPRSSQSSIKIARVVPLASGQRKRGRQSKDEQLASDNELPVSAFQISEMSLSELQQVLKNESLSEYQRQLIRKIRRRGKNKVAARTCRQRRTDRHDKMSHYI

[30] = target: Steroidogenic factor 1 (Homo sapiens, UniProt Q13285); assay: Counterscreen for inverse agonists of the liver receptor homolog-1 (LRH-1; NR5A2): Luminescence-based cell-based high throughput dose response assay to identify inverse agonists of the Steroidogenic Factor 1 Nuclear Receptor (SF1; NR5A1).; format: functional
[31] = target: Nuclear receptor subfamily 5 group A member 2 (Homo sapiens, UniProt O00482); format: functional, cell-based;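 further: HEK293T cells transfected with LRH-1 and a StAR promoter luciferase reporter; potency for inhibitors that lower LRH-1 driven reporter light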
[32] = nonselective StAR promoter luciferase inhibitors – cell-based, luminescence, luciferase reporter, counter-screen for LRH-1 inverse agonist project, dose response (AID 651969); format: functional
[33] = target: fMet-Leu-Phe receptor (Homo sapiens, UniProt P21462); assay: formyl peptide receptor binders – dose response (AID 519); format: functional
[34] = general mammalian cell viability loss – inhibitor set, cherry-pick, set 2, cytotoxicity control for miR-122 modulator project, dose response (AID 720697); format: functional, cell-based
[35] = activation of miR-122 Renilla sensor silencing – cell-based, Huh7 psiCHECK-miR122, Renilla luciferase, cherry-picked, dose response (AID 651956); format: functional;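 further: huh7 hepatoma cells stably carrying a psiCHECK-2 miR-122 sensor plasmid; renilla luciferase signal reporting endogenous miR-122 activity after 48 h compound exposure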
[36] = target: Paired box protein Pax-8 (Homo sapiens, UniProt Q06710); assay: PAX8 transcriptional activity inhibition in RMG-I – RMG-I cells, luciferase, cherry-pick, dose response (AID 687027); format: functional, cell-based;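 further: luciferase reporter driven by Pax8 target thyroperoxidase promoter measured by SteadyGlo luminescence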
[37] = general cell-killing toxicity readout – plate reader, dry powder samples, cytotoxicity control for PAX8 inhibitor project, dose response (AID 743021); format: functional, cell-based
[38] = alpha-synuclein stem-loop luciferase translation blockers – H4 neuroglioma cells, luminescence, confirmation (AID 1988); format: functional, cell-based
[39] = cells; format: functional, cell-based; remark: listed apart in the source
[40] = luciferase reporter signal reduction – luminescence, H4-C neuroglioblastoma cells, dose response (AID 2458); format: functional, cell-based;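 further: H4 neuroglioblastoma cells stably carrying a luciferase reporter gene fusion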
[41] = rise of 4N DNA cells, HeLa – IC50, dose response (AID 1117351); format: functional, cell-based
[42] = rise of 2N DNA cells, HeLa – IC50, dose response (AID 1117349); format: functional, cell-based
[43] = luciferase reporter signal suppression in cells – H4 neuroglioma cells, luminescence, dose response (AID 1990); format: functional, cell-based
[44] = alpha-synuclein stem-loop translation blockers – luminescence, H4 neuroglioblastoma cells, dose confirmation, confirmation (AID 2454); format: functional, cell-based;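 further: H4 neuroglioblastoma cells carrying an alpha-synuclein 5'UTR luciferase reporter; potency for inhibition of the luciferase signal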

## O=C(c1cc(-c2ccc(Cl)cc2Cl)on1)N1CCOCC1
[1]
  IC50: > 67.5 µM (inactive)
[2]
  IC50: > 67.5 µM (inactive)
[3]
  AC50: 7.17 µM (active)
[4]
  EC50: > 120 µM (not active)
[5]
  AC50: 7.28 µM (active)

## CCc1c(C)nc2ncnn2c1NCCc1ccc(OC)cc1
[6]
  AC50: 25.1 µM (inconclusive)
[7]
  AC50: 5.39 µM (active)
[8]
  AC50: 12.6 µM (inconclusive)
[9]
  EC50: > 29.9 µM (inactive)
[10]
  IC50: 3.2 µM (active)
[11]
  IC50: > 80 µM (inactive)

## Cc1cc(NCc2ccccn2)n2ncc(-c3ccccc3)c2n1
[12]
  CC50: 6.66 µM (active)
[13]
  IC50: 1.4 µM (active)
[14]
  AC50: 26 µM (active)
[15]
  CC50: 11.8 µM (active)
[16]
  CC50: 4.11 µM (active)

## Cc1cc(NCCN2CCOCC2)c2ccc3ccccc3c2n1
[17]
  EC50: 0.949 µM (active)
[18]
  EC50: > 91.2 µM (inactive)
[19]
  EC50: 25.3 µM (inactive)
[20]
  EC50: > 60 µM (not active)

## N=C(N)NS(=O)(=O)c1ccc(NC(=S)NC(=O)c2sc3ccccc3c2Cl)cc1
[21]
  IC50: > 138 µM (inactive)
[22]
  IC50: 5.54 µM (active)

## c1ccc(-n2nnnc2Sc2ncnc3sc4c(c23)CCCC4)cc1
[23]
  AC50: 42.3 µM (active)
[3]
  AC50: 5.02 µM (active)
[24]
  AC50: > 52 µM (inactive)
[5]
  AC50: 5.73 µM (active)

## Cn1nc(C(C)(C)C)cc1C(=O)NCc1ccc2c(c1)OCO2
[25]
  AC50: 1.17 µM (active)
[7]
  AC50: 3.31 µM (active)
[9]
  EC50: > 29.9 µM (inactive)
[10]
  IC50: 1.83 µM (active)
[26]
  AC50: 1.02 µM (active)
[27]
  AC50: 2.31 µM (active)

## CCc1cc2c(=O)c(-c3ccc4c(c3)OCO4)coc2c(CN(C)C)c1O
[21]
  IC50: > 138 µM (inactive)
[22]
  IC50: 2.07 µM (active)

## S=C(c1ccc(-c2ccc(Cl)cc2)o1)N1CCCCC1
[28]
  EC50: > 67.5 µM (inactive)

## Clc1ccc(Nc2ccc3ccccc3n2)cc1
[29]
  IC50: > 100 µM (inactive)
[28]
  EC50: > 67.5 µM (inactive)

## CC1=CC(O)C(O)C2(C)C1CC1OC(=O)CC3C(C)C(O)C(=O)C2C13CO (stereo not drawn)
[30]
  IC50: 4.96 µM (active)
[31]
  IC50: 6.91 µM (active)
[32]
  IC50: 17.7 µM (inactive)

## CCOc1ccc(C2C(C(=O)c3cccs3)=C(O)C(=O)N2CCCn2ccnc2)cc1 (stereo not drawn)
[33]
  Ki: 57.1 µM (inactive)

## COc1ccccc1CNc1nc(NCC2CC2)nc2ccsc12
[25]
  AC50: 4.16 µM (active)
[34]
  AC50: 6.06 µM (active)
[26]
  AC50: 6.69 µM (active)
[27]
  AC50: 39.9 µM (active)
[35]
  AC50: 29.6 µM (active)

## CC(C)C#Cc1ccc2c(c1)O[C@H](CN(C)C(=O)c1ccncc1)[C@@H](C)CN([C@@H](C)CO)S2(=O)=O
[34]
  AC50: 0.461 µM (active)
[35]
  AC50: 11.6 µM (active)

## Cc1ccc(S(=O)(=O)N(C)C[C@H]2Oc3ccc(NS(=O)(=O)c4ccc(F)cc4)cc3CC(=O)N([C@H](C)CO)C[C@H]2C)cc1
[36]
  AC50: 21.5 µM (active)
[37]
  AC50: 52.8 µM (active)

## O=C(Cc1ccc(-c2ccccc2)cc1)Nc1ccccn1 [DIFENPIRAMIDE]
[18]
  EC50: > 91.2 µM (inactive)
[19]
  EC50: > 91.2 µM (inactive)

## COc1cc([C@@H]2c3cc4c(cc3[C@H](O)[C@H]3COC(=O)[C@H]23)OCO4)cc(OC)c1OC [PODOFILOX]
[1]
  IC50: > 67.5 µM (inactive)
[2]
  IC50: 2.15 µM (active)
[38]
  EC50: < 0.1 µM (active)
[39]
  EC50: 0.014 µM (active)
[40]
  EC50: 0.015 µM (active)
[41]
  IC50: 0.0077 µM (active)
[42]
  IC50: 0.0089 µM (active)
[43]
  EC50: < 0.1 µM (active)
[36]
  AC50: < 0.26 µM (active)
[11]
  IC50: > 80 µM (inactive)
[44]
  EC50: 0.008 µM (active)
